Measurements as given in patent US20240294551A1 (AMGEN INC., priority 2022, published 2024).
pIC50: −log10 of the molar value. Read-outs that look alike come from different tables or passages of the source.

Key:
[1] = target: His-tagged KRAS G12D protein (Homo sapiens (Human), UniProt P01116, G12D); assay: KRAS G12D TR-FRET Assay; assay type: binding; conditions: read-out: KRAS G12D Binding IC50
Outline: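 His-tagged KRAS G12D (diluted to 20 nM in pH 7.4 HEPES buffer with 10 mM MgCl2 and 10 μM GDP) was preincubated with titrated compound for 30 min at room temperature. Biotinylated KRPep-2d peptide (diluted to 20 nM) was then added for 1 h, and displacement was monitored by TR-FRET.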

[2] = target: GDP-bound KRAS protein (aa 1-169), containing both G12D and C118A amino acid substitutions (Homo sapiens (Human), UniProt P01116, C118A/G12D); assay: KRAS G12D Coupled Nucleotide Exchange Assay; assay type: biochemical; conditions: read-out: KRAS G12D Coupled Exchange IC50
GDP-bound KRAS protein (aa 1-169), containing both G12D and C118A amino acid substitutions, sequence (P01116 other isoform, or with tags, fused parts or gaps G12D/C118A): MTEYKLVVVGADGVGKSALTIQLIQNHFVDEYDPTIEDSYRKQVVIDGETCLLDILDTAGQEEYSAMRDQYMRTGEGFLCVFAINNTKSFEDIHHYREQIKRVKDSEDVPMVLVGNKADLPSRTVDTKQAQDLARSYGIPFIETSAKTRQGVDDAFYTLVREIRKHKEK

[3] = tested on: Phosphorylation of ERK1/2 in AsPC-1 cells; assay: Phospho-ERK1/2 MSD Assay; assay type: cell-based, human; conditions: read-out: 2 h p-ERK (AsPC-1 cells), IC50
Procedure: AsPC-1 (ATCC® CRL-1682™) cells were cultured in RPMI 1640 Medium (ThermoFisher Scientific 11875093) containing 10% fetal bovine serum (ThermoFisher Scientific 16000044) and 1× penicillin-streptomycin-glutamine (ThermoFisher Scientific 10378016). Sixteen hours prior to compound treatment, AsPC-1 cells were seeded in 96-well cell culture plates at a density of 25,000 cells/well and incubated at 37° C., 5% CO2. A compound dose-response titration was diluted in growth media, added to appropriate wells of a cell culture plate, and then incubated at 37° C., 5% CO2 for 2 hours. Following compound treatment, cells were washed with ice-cold Dulbecco's phosphate-buffered saline, no Ca^2+ or Mg^2+ (ThermoFisher Scientific 14190144), and then lysed in RIPA buffer (50 mM Tris-HCl pH 7.5, 1% Igepal, 0.5% sodium deoxycholate, 150 mM NaCl, and 0.5% sodium dodecyl sulfate) containing protease inhibitors (Roche 4693132001) and phosphatase inhibitors (Roche 4906837001). Phosphorylation of ERK1/2 in compound-treated lysates was assayed using Phospho-ERK1/2 Whole Cell Lysate kits (Meso Scale Discovery K151DWD) according to the manufacturer's protocol. Assay plates were read on a Meso Scale Discovery Sector Imager 6000, and data were analyzed using a 4-parameter logistic model to calculate IC50 values.

His-tagged KRAS G12D protein, sequence (P01116 other isoform, or with tags, fused parts or gaps G12D): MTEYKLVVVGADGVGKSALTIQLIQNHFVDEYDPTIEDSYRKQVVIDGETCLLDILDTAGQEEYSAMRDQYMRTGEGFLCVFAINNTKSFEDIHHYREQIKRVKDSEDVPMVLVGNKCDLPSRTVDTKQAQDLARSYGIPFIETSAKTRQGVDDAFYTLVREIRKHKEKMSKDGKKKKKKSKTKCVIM

Compound	pIC50 [1]	pIC50 [2]	pIC50 ([3]; Homo sapiens, ASPC1, 2 h)	pIC50 ([3]; 2 h)
Cc1cc2[nH]ncc2c2c1CCCCOC(=O)[C@@H]1CCCN(C1)c1nc(OC[C@@]34CCCN3C[C@H](F)C4)nc3c(F)c-2ncc13 [Example 108]	7.62	7.85	6.41	–
Fc1c2ncc3c(nc(OC[C@@]45CCCN4C[C@H](F)C5)nc13)N1CCC[C@H](C1)Cn1cc(cn1)/C=C\c1c(Cl)cc3[nH]ncc3c1-2 [Example 147]	7.80	7.89	6.53	–
Cc1cc2[nH]ncc2c2c1CCCn1ncc(n1)C1CCCN(C1)c1nc(OC[C@@]34CCCN3C[C@H](F)C4)nc3c(F)c-2ncc13 (stereo partly drawn) [Example 158, 31-Fluoro-25-(((2R,7aS)-2-fluorotetrahydro-1H-pyrrolo[1,2-a]pyrrol-7a(5H)-yl)methoxy)-9-methyl-5,6,14,15,22,24,26,30,33-nonaazaheptacyclo[25.3.1.1˜14,17˜.1˜18,22.0˜2,10˜.0˜3,7˜.0˜23,28˜]tritriaconta-1(31),2,4,7,9,15,17(33),23,25,27,29-undecaene]	7.70	8.22	–	6.56
O=C1CCCCc2c(Cl)cccc2-c2ncc3c(nc(OC[C@@]45CCCN4C[C@H](F)C5)nc3c2F)N2CC[C@H]3CCN1[C@H]3C2 [Example 162, (25S,29R)-15-chloro-30-fluoro-4-(((2R,7aS)-2-fluorotetrahydro-1H-pyrrolo[1,2-a]pyrrol-7a(5H)-yl)methoxy)-1,3,5,9,22-pentaazahexacyclo[20.5.2.1~6,10~.0~2,7~.0~11,16~.0~25,29~]triaconta-2,4,6,8,10(30),11,13,15-octaen-21-one]	7.43	7.70	5.74	–
O=C1N[C@@H]2CN(C[C@@H]3C[C@@H]32)c2nc(OC[C@@]34CCCN3C[C@H](F)C4)nc3c(F)c(ncc23)-c2c(c(Cl)cc3[nH]ncc23)CCC[C@@H]1F [Example 174, (23S,26S,27S,29R)-18-chloro-23,32-difluoro-4-(((2R,7aS)-2-fluorotetrahydro-1H-pyrrolo[1,2-a]pyrrol-7a(5H)-yl)methoxy)-1,3,5,9,14,15,25-heptaazaheptacyclo[24.4.1.1~6,10~.0~2,7~.0~11,19~.0~12,16~.0~27,29~]dotriaconta-2,4,6,8,10(32), 11,13,16,18-nonaen-24-one]	8.30	8.52	7.27	–
O=C1OCCc2cccc3cccc(c23)-c2ncc3c(nc(OC[C@@]45CCCN4C[C@H](F)C5)nc3c2F)N2CCOC[C@H](C2)O1 [Example 201, (16S)-32-fluoro-8-(((2R,7aS)-2-fluorotetrahydro-1H-pyrrolo[1,2-a]pyrrol-7a(5H)-yl)methoxy)-14,17,19-trioxa-3,7,9,11-tetraazahexacyclo[20.7.1.1~2,6~.1~11,16~.0~5,10~.0~26,30~]dotriaconta-1(29),2(32),3,5,7,9,22,24,26(30),27-decaen-18-one]	8.05	8.10	6.77	–
Fc1c2ncc3c(nc(OC[C@@]45CCCN4C[C@H](F)C5)nc13)N1CC(COCCCCc3c(Cl)cc4[nH]ncc4c3-2)CC(F)(F)C1 (stereo partly drawn) [Example 229]	7.57	7.92	6.47	–
Fc1c2ncc3c(nc(OC[C@@]45CCCN4C[C@H](F)C5)nc13)N1CCCC(Cc3ncn(n3)CCc3c(Cl)cc4[nH]ncc4c3-2)C1 (stereo partly drawn) [Example 232]	7.51	7.74	5.87	–
Cc1cc2[nH]ncc2c2c1C[C@H](C)CCOC[C@@H]1CCCN(C1)c1nc(OC[C@@]34CCCN3C[C@H](F)C4)nc3c(F)c-2ncc13 [Example 251, (12S,17R)-30-fluoro-24-(((2R,7aS)-2-fluorotetrahydro-1H-pyrrolo[1,2-a]pyrrol-7a(5H)-yl)methoxy)-9,12-dimethyl-15-oxa-5,6,21,23,25,29-hexaazahexacyclo[24.3.1.1~17,21~.0~2,10~.0~3,7~.0~22,27~]hentriaconta-1(30),2,4,7,9,22,24,26,28-nonaene]	7.82	8.10	6.42	–

Continued, values first:

pIC50 [1]	pIC50 [2]	pIC50 ([3]; Homo sapiens, ASPC1, 2 h)	pIC50 ([3]; 2 h)	Compound
7.89	7.96	6.50	–	Cc1cc2[nH]ncc2c2c1CCCOC(=O)O[C@@H]1CCCCN(C1)c1nc(OC[C@@H]3C[C@@H](F)CN3C)nc3c(F)c-2ncc13 [Example 92, (26R)-32-fluoro-4-(((2S,4R)-4-fluoro-1-methyl-2-pyrrolidinyl)methoxy)-18-methyl-23,25-dioxa-1,3,5,9,14,15-hexaazahexacyclo[24.4.1.1~6,10~.0~2,7~.0~11,19~.0~12,16~]dotriaconta-2,4,6,8,10(32),11,13,16,18-nonaen-24-one]
7.03	7.15	5.87	–	Cc1cc2[nH]ncc2c2c1/C=C/COC(=O)O[C@@H]1CCCN(C1)c1nc(OC[C@@]34CCCN3C[C@H](F)C4)nc3c(F)c-2ncc13 [Example 101, (11E,17R)-30-fluoro-24-(((2R,7aS)-2-fluorotetrahydro-1H-pyrrolo[1,2-a]pyrrol-7a(5H)-yl)methoxy)-9-methyl-14,16-dioxa-5,6,21,23,25,29-hexaazahexacyclo[24.3.1.1~17,21~.0~2,10~.0~3,7~.0~22,27~]hentriaconta-1(30),2,4,7,9,11,22,24,26,28-decaen-15-one]
7.82	7.96	6.73	–	Cc1cc2[nH]ncc2c2c1CC(C)COC(=O)O[C@@H]1CCCN(C1)c1nc(OC[C@@]34CCCN3C[C@H](F)C4)nc3c(F)c-2ncc13 (stereo partly drawn) [Example 111]
7.70	7.82	6.32	–	CN1CCO[C@@H](COc2nc3c4cnc(c(F)c4n2)-c2c(c(Cl)cc4[nH]ncc24)CCCOC(=O)O[C@@H]2COCCN3C2)C1 [Example 124]
7.77	7.82	6.61	–	Fc1c2ncc3c(nc(OC[C@@]45CCCN4C[C@H](F)C5)nc13)N1CCC[C@@H](COCCOCc3c(Cl)cc4[nH]ncc4c3-2)C1 [Example 142]
7.48	7.77	6.51	–	Fc1c2ncc3c(nc(OC[C@@]45CCCN4C[C@H](F)C5)nc13)N1CCO[C@@H](COCC(F)(F)CCc3c(Cl)cc4[nH]ncc4c3-2)C1 [Example 150, (17R)-9-Chloro-13,13,30-trifluoro-24-(((2R,7aS)-2-fluorotetrahydro-1H-pyrrolo[1,2-a]pyrrol-7a(5H)-yl)methoxy)-15,18-dioxa-5,6,21,23,25,29 hexaazahexacyclo[24.3.1.1˜17,21˜.0˜2,10˜.0˜3,7˜.0˜22,27˜]hentriaconta-1(30),2,4,7,9,22,24,26,28-nonaene]
7.77	8.10	6.77	–	C[C@@H](Oc1nc2c3cnc(c(F)c3n1)-c1c(c(Cl)cc3[nH]ncc13)CCCOC(=O)O[C@@H]1COCCN2C1)[C@@H]1CCCN1C [Example 203, (26S)-18-chloro-32-fluoro-4-((1R)-1-((2S)-1-methyl-2-pyrrolidinyl)ethoxy)-23,25,28-trioxa-1,3,5,9,14,15-hexaazahexacyclo[24.4.1.1~6,10~.0~2,7~.0~11,19~.0~12,16~]dotriaconta-2,4,6,8,10(32),11,13,16,18-nonaen-24-one]
7.47	7.80	6.37	–	C[C@H](Oc1nc2c3cnc(c(F)c3n1)-c1c(c(Cl)cc3[nH]ncc13)CCCOC(=O)O[C@@H]1COCCN2C1)[C@@H]1CCCN1C [Example 204, (26S)-18-chloro-32-fluoro-4-((1S)-1-((2S)-1-methyl-2-pyrrolidinyl)ethoxy)-23,25,28-trioxa-1,3,5,9,14,15-hexaazahexacyclo[24.4.1.1~6,10~.0~2,7~.0~11,19~.0~12,16~]dotriaconta-2,4,6,8,10(32),11,13,16,18-nonaen-24-one]
7.96	8.22	7.44	–	Cc1cc2[nH]ncc2c2c1CCOC(=O)OC1CC3(CCCN(C3)c3nc(OC[C@@H]4CCCN4C)nc4c(F)c-2ncc34)C1 [Example 205, (1R,3S)-32-fluoro-10-methyl-24-(((2S)-1-methyl-2-pyrrolidinyl)methoxy)-4,6-dioxa-13,14,19,23,25,27-hexaazaheptacyclo[25.3.1.1~1,3~.1~18,22~.0~9,17~.0~12,16~.0~21,26~]tritriaconta-9,11,14,16,18(32),19,21,23,25-nonaen-5-one]
8.40	8.52	7.56	–	Cc1cc2[nH]ncc2c2c1CCOC(=O)OC[C@H]1CN(CCO1)c1nc(OC[C@@]34CCCN3C[C@H](F)C4)nc3c(F)c-2ncc13 [Example 218]
7.72	8.00	6.43	–	Cc1cc2[nH]ncc2c2c1CCOC(=O)OC[C@@H]1CCN(C1)c1nc(OC[C@@]34CCCN3C[C@H](F)C4)nc3c(F)c-2ncc13 [Example 219]
